IC50 data for 14 compounds are collected here from patent US7205305B2, “Inhibitors of p38” (Vertex Pharmaceuticals Incorporated, priority 1996, dated 2007).

Where only a bound is given, the exact number is not on record here.

The subject of assay [1] is TNF production in LPS-stimulated PBMCs. Kind of assay: Inhibition of TNF production in LPS-stimulated PBMCs ("cell"). Type of assay: cell-based, human. To be noted: Homo sapiens, PBMC. The gist of the method:
(§1)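 Human PBMCs (4.8×10^6 cells/ml, RPMI1640/10% FBS) pre-treated with inhibitor dilutions, then stimulated with 4 ng/ml LPS final and incubated overnight (12–15 h) at 37 °C/5% CO2. Supernatant IL-1β and TNF-α measured by ELISA; IC50 from dose-response curves.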

In the next assay the target is activated p38 (Homo sapiens, UniProt Q16539). Kind of assay: Inhibition of phosphorylation of EGF receptor peptide ("kinase"). Type of assay: biochemical. As to conditions: inhibition of phosphorylation of EGF receptor peptide by activated p38. In outline: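 Activated p38 was preincubated with inhibitor for 15 min at room temperature in 100 mM HEPES pH 7.6, 10 mM MgCl2, 25 mM β-glycerophosphate, 10% glycerol, 5% DMSO final. Reaction used 200 μM EGF receptor peptide and 100 μM ATP for 30 min at 30° C. TFA-quenched phosphopeptide was quantified by reverse-phase HPLC.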

Assay [2] relates to TNF production in whole blood. Kind of assay: Inhibition of TNF production in LPS-stimulated whole blood ("WB"). As to conditions: Homo sapiens. Type of assay: cell-based, human. The gist of the method: (§2)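 Anticoagulated whole blood was preincubated with serially diluted compound, then stimulated with 4 ng/ml LPS (final) overnight (12–15 h) at 37° C/5% CO2. Supernatant IL-1b, TNF-α and IL-6 were measured by ELISA and IC50 derived from dose-response curves.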

In assay [3] the test system is IL-1 production in LPS-stimulated PBMCs. Kind of assay: Inhibition of IL-1 production in LPS-stimulated PBMCs ("cell"). Type of assay: cell-based, human. To be noted: Homo sapiens, PBMC. In outline: as §1
In assay [4] the test system is IL-1 production in whole blood. Kind of assay: Inhibition of IL-1 production in LPS-stimulated whole blood ("WB"). Type of assay: cell-based, human. To be noted: Homo sapiens. The gist of the method: as §2
For assay [5], the system named is IL-6 production in whole blood. Kind of assay: Inhibition of IL-6 production in LPS-stimulated whole blood ("WB"). Type of assay: cell-based, human. To be noted: Homo sapiens. In outline:
as §2

Sequence of activated p38 (Q16539 whole entry): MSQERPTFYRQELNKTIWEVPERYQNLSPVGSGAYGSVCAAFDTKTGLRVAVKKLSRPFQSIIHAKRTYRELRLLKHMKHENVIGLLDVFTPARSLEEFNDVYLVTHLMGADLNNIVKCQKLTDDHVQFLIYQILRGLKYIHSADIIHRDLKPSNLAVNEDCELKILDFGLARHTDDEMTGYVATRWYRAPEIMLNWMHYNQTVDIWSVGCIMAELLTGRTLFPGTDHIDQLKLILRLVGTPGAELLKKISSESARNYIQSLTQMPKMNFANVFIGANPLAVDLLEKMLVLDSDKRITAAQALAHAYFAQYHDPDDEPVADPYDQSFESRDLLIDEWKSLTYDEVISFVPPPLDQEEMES

For `NC(=O)C(c1cccc(-c2ccccc2CO)n1)c1c(Cl)cccc1Cl` (stereo not drawn) [Compound 302], the IC50 in assay [1] was 100 to 500 nM; at activated p38 it was at most 100 nM; in assay [2], at least 500 nM; in assay [3], at most 100 nM; in assay [4], at least 500 nM; in assay [5], at least 500 nM.
As to `CNCc1ccccc1-c1cccc(C(C(N)=O)c2c(Cl)cccc2Cl)n1` (stereo not drawn) [Compound 303], the IC50 was at least 500 nM in assay [1]; at least 1000 nM at activated p38; at least 500 nM in assay [2]; at least 500 nM in assay [3]; at least 500 nM in assay [4]; at least 500 nM in assay [5].
On to `NC(=O)C(c1cccc(-c2ccccc2CN2CCNCC2)n1)c1c(Cl)cccc1Cl` (stereo not drawn) [Compound 304], for which the IC50 in assay [1] was at least 500 nM; against activated p38, at least 1000 nM; in assay [2] it was at least 500 nM; in assay [3], at least 500 nM; in assay [4], at least 500 nM; in assay [5], at least 500 nM.
Turning to `Cc1ccccc1-c1cccc(C(C(N)=O)c2c(Cl)cccc2Cl)n1` (stereo not drawn) [Compound 305], the IC50 in assay [1] is at least 500 nM; against activated p38, at most 100 nM; in assay [2], at least 500 nM; in assay [3] it was at most 100 nM; in assay [4] it was at least 500 nM; in assay [5], at least 500 nM.
For `NC(=O)C(c1cccc(-c2ccccc2)n1)c1c(F)cccc1Cl` (stereo not drawn) [Compound 306], the IC50 in assay [1] was at least 500 nM; against activated p38 it was 100 to 1000 nM; in assay [2], at least 500 nM; in assay [3] it was 100 to 500 nM; in assay [4], at least 500 nM; in assay [5] it was at least 500 nM.
Consider `NC(=O)C(c1cccc(-c2ccccc2/C=N\O)n1)c1c(Cl)cccc1Cl` (stereo not drawn) [Compound 307], for which the IC50 in assay [1] was at least 500 nM; at activated p38 it was at most 100 nM; in assay [2], at least 500 nM; in assay [3], 100 to 500 nM; in assay [4], at least 500 nM; in assay [5], at least 500 nM.
As to `NC(=O)C(c1cccc(-c2ccc(F)cc2)n1)c1c(Cl)cccc1Cl` (stereo not drawn) [Compound 309], the half-inhibitory concentration (IC50) in assay [1] was 100 to 500 nM; on activated p38 it was 100 to 1000 nM; in assay [2], at least 500 nM; in assay [3], 100 to 500 nM; in assay [4] it was at least 500 nM; in assay [5] it was at least 500 nM.
Turning to `Cc1cccc(-c2cccc(C(C(N)=O)c3c(Cl)cccc3Cl)n2)c1` (stereo not drawn) [Compound 312], the IC50 was at least 500 nM in assay [1]; at most 100 nM on activated p38; at least 500 nM in assay [2]; 100 to 500 nM in assay [3]; at least 500 nM in assay [4]; at least 500 nM in assay [5].
For `NC(=O)C(c1cccc(-c2ccc(Cl)cc2Cl)n1)c1c(Cl)cccc1Cl` (stereo not drawn) [Compound 325], the IC50 in assay [1] is 100 to 500 nM; against activated p38, at most 100 nM; in assay [2], at least 500 nM; in assay [3] it was at most 100 nM; in assay [4] it was at least 500 nM; in assay [5] it was at least 500 nM.
Consider `NC(=O)C(c1cccc(-c2ccc(F)cc2)n1)c1c(F)cccc1Cl` (stereo not drawn) [Compound 329], for which the IC50 in assay [1] is at least 500 nM; at activated p38, 100 to 1000 nM; in assay [2] it was at least 500 nM; in assay [3] it was 100 to 500 nM; in assay [4], at least 500 nM; in assay [5] it was at least 500 nM.
Consider `Cc1cccc(-c2cccc(C(C(N)=O)c3c(F)cccc3Cl)n2)c1` (stereo not drawn) [Compound 332], for which the concentration for half-maximal inhibition (IC50) in assay [1] is at least 500 nM; against activated p38, 100 to 1000 nM; in assay [2], at least 500 nM; in assay [3] it was 100 to 500 nM; in assay [4], at least 500 nM; in assay [5], at least 500 nM.
Regarding `Cc1ccccc1-c1cccc(C(C(N)=O)c2c(F)cccc2Cl)n1` (stereo not drawn) [Compound 335], the half-maximal inhibitory concentration (IC50) in assay [1] was at least 500 nM; against activated p38, 100 to 1000 nM; in assay [2] it was at least 500 nM; in assay [3], at least 500 nM; in assay [4], at least 500 nM; in assay [5], at least 500 nM.
`NC(=O)C(c1cccc(-c2ccc(Cl)cc2Cl)n1)c1c(F)cccc1Cl` (stereo not drawn) [Compound 346]: the IC50 was at least 500 nM in assay [1]; 100 to 1000 nM against activated p38; at least 500 nM in assay [2]; at least 500 nM in assay [3]; at least 500 nM in assay [4]; at least 500 nM in assay [5].
In the case of `NC(=O)C(c1cccc(-c2ccccc2)n1)c1cc(Cl)ccc1Cl` (stereo not drawn) [Compound 349], the half-maximal inhibitory concentration (IC50) in assay [1] was at least 500 nM; against activated p38 it was at least 1000 nM; in assay [2] it was at least 500 nM; in assay [3] it was 100 to 500 nM; in assay [4], at least 500 nM; in assay [5], at least 500 nM.

As usually defined, the IC50 is the concentration that inhibits the measured activity by half.
